pIC50: −log10 of the molar value.

PHGDH, sequence (O43175 2-533 limits assumed): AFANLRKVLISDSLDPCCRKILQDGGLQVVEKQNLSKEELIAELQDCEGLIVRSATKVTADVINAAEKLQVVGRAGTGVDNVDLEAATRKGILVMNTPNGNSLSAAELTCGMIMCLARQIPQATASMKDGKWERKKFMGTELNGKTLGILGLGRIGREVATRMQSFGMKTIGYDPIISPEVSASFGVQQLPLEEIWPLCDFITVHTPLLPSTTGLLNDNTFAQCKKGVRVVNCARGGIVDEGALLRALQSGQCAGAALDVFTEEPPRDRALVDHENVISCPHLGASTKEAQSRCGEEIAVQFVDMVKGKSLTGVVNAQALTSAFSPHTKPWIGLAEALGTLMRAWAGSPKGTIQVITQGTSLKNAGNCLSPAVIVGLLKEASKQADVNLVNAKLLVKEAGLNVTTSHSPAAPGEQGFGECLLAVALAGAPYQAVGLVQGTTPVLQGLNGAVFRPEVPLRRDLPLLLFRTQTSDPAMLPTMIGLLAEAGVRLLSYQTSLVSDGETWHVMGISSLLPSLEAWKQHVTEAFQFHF

The first test addresses PHGDH (Homo sapiens (Human), UniProt O43175). Nature of the test: 3-Phosphoglycerate Dehydrogenase (PHGDH) Fluorescence Intensity Assay, run at two NAD/3-PG ratios: PHGDH_HIGH_NAD/3-PG (250 μM NAD/500 μM 3-PG) and PHGDH_500_NAD/3-PG (500 μM NAD/500 μM 3-PG). The class given is biochemical. As to conditions: 250 μM NAD/500 μM 3-PG; read-out: IC50 (PHGDH_HIGH_NAD/3-PG).
Regarding `Cc1cc(Cl)c2cc(C(=O)N[C@H](C)c3ccc(S(=O)(=O)CC(=O)OCCOC(=O)C(C)(C)C)cc3)n(C)c2c1` [Example 09-023, 2-[(2-{4-[(1R)-1-[(4-chloro-1,6-dimethyl-1H-indol-2-yl)formamido]ethyl]benzenesulfonyl}acetyl)oxy]ethyl 2,2-dimethylpropanoate], the pIC50 was 5.74. Take `CC(=O)OCC(CO)COC(=O)CS(=O)(=O)c1ccc([C@@H](C)NC(=O)c2cc3c(Cl)cc(C)cc3n2C)cc1` (stereo partly drawn) [Example 09-024, 2-[(acetyloxy)methyl]-3-hydroxypropyl 2-{4-[(1R)-1-[(4-chloro-1,6-dimethyl-1H-indol-2-yl)formamido]ethyl]benzenesulfonyl}acetate]: the pIC50 is 6.61.

As to `Cc1cc(Cl)c2cc(C(=O)N[C@H](C)c3ccc(S(=O)(=O)CC(=O)OC4COC4)cc3)n(C)c2c1` [Example 09-025, oxetan-3-yl 2-{4-[(1R)-1-[(4-chloro-1,6-dimethyl-1H-indol-2-yl)formamido]ethyl]benzenesulfonyl}acetate], the pIC50 was 7.14. In the case of `Cc1cc(Cl)c2cc(C(=O)N[C@H](C)c3ccc(S(=O)(=O)CC(=O)OCC(CO)COC(=O)C(C)(C)C)cc3)n(C)c2c1` (stereo partly drawn) [Example 09-026, 2-{[(2-{4-[(1R)-1-[(4-chloro-1,6-dimethyl-1H-indol-2-yl)formamido]ethyl]benzenesulfonyl}acetyl)oxy]methyl}-3-hydroxypropyl 2,2-dimethylpropanoate], the pIC50 was 5.85.

In the case of `Cc1cc(Cl)c2cc(C(=O)N[C@H](C)c3ccc(S(=O)(=O)CC(=O)OCC(CO)CO)cc3)n(C)c2c1` [Example 09-027, 3-hydroxy-2-(hydroxymethyl)propyl 2-{4-[(1R)-1-[(4-chloro-1,6-dimethyl-1H-indol-2-yl)formamido]ethyl]benzenesulfonyl}acetate], the pIC50 is 6.80. For the compound `Cc1cc(Cl)c2cc(C(=O)N[C@H](CO)c3ccc(S(=O)(=O)CC(=O)OC4CCOCC4)cc3)n(C)c2c1` [Example 09-028, oxan-4-yl 2-{4-[(1S)-1-[(4-chloro-1,6-dimethyl-1H-indol-2-yl)formamido]-2-hydroxyethyl]benzenesulfonyl}acetate], the pIC50 was 6.64.

In the case of `Cc1cc(Cl)c2cc(C(=O)N[C@H](CO)c3ccc(S(=O)(=O)CC(=O)O[C@H]4CCOC4)cc3)n(C)c2c1` [Example 09-030, (3S)-oxolan-3-yl 2-{4-[(1S)-1-[(4-chloro-1,6-dimethyl-1H-indol-2-yl)formamido]-2-hydroxyethyl]benzenesulfonyl}acetate], the pIC50 is 7.07. Still for that read-out and setting: the same measure for `Cc1cc(Cl)c2cc(C(=O)N[C@H](CO)c3ccc(S(=O)(=O)CC(=O)OCC4(C)COC4)cc3)n(C)c2c1` [Example 09-031, (3-methyloxetan-3-yl)methyl 2-{4-[(1S)-1-[(4-chloro-1,6-dimethyl-1H-indol-2-yl)formamido]-2-hydroxyethyl]benzenesulfonyl}acetate]: 7.21; for `Cc1cc(Cl)c2cc(C(=O)N[C@H](CO)c3ccc(S(=O)(=O)CC(=O)OCCCO)cc3)n(C)c2c1` [Example 09-033, 3-hydroxypropyl 2-{4-[(1S)-1-[(4-chloro-1,6-dimethyl-1H-indol-2-yl)formamido]-2-hydroxyethyl]benzenesulfonyl}acetate]: 7.01; for `Cc1cc(Cl)c2cc(C(=O)N[C@H](CO)c3ccc(S(=O)(=O)CC(=O)OCCO)cc3)n(C)c2c1` [Example 09-034, 2-hydroxyethyl 2-{4-[(1S)-1-[(4-chloro-1,6-dimethyl-1H-indol-2-yl)formamido]-2-hydroxyethyl]benzenesulfonyl}acetate]: 7.28. The same measure, in the same setting: to `Cc1cc(Cl)c2cc(C(=O)N[C@H](CO)c3ccc(S(=O)(=O)CC(=O)OCC4COC4)cc3)n(C)c2c1` [Example 09-035, oxetan-3-ylmethyl 2-{4-[(1S)-1-[(4-chloro-1,6-dimethyl-1H-indol-2-yl)formamido]-2-hydroxyethyl]benzenesulfonyl}acetate] belongs 7.27; to `COCCOC(=O)CS(=O)(=O)c1ccc([C@@H](C)NC(=O)c2cc(-c3ccccc3)nn2C)cc1` [Example 10-001, 2-methoxyethyl 2-{4-[(1R)-1-[(1-methyl-3-phenyl-1H-pyrazol-5-yl)formamido]ethyl]benzenesulfonyl}acetate], 5.84; to `C[C@@H](NC(=O)c1cc(-c2ccccc2)nn1C)c1ccc(S(=O)(=O)CC(=O)OCCN(C)C)cc1` [Example 10-002, 2-(dimethylamino)ethyl 2-{4-[(1R)-1-[(1-methyl-3-phenyl-1H-pyrazol-5-yl)formamido]ethyl]benzenesulfonyl}acetate], 6.30. On to `C[C@@H](NC(=O)c1cc(-c2ccccc2)nn1C)c1ccc(S(=O)(=O)CC(=O)OCCF)cc1` [Example 10-004, 2-fluoroethyl 2-{4-[(1R)-1-[(1-methyl-3-phenyl-1H-pyrazol-5-yl)formamido]ethyl]benzenesulfonyl}acetate], for which the pIC50 was 5.84. On to `C[C@@H](NC(=O)c1cc(-c2ccc(F)cc2)nn1C)c1ccc(S(=O)(=O)CC(=O)OCCO)cc1` [Example 10-005, 2-hydroxyethyl 2-{4-[(1R)-1-{[3-(4-fluorophenyl)-1-methyl-1H-pyrazol-5-yl]formamido}ethyl]benzenesulfonyl}acetate], for which the pIC50 was 6.12.

Consider `C[C@@H](NC(=O)c1cc(-c2ccc(F)cc2)nn1C)c1ccc(S(=O)(=O)CC(=O)OCC2COC2)cc1` [Example 10-007, oxetan-3-ylmethyl 2-{4-[(1R)-1-{[3-(4-fluorophenyl)-1-methyl-1H-pyrazol-5-yl]formamido}ethyl]benzenesulfonyl}acetate], for which the pIC50 is 6.15. On to `COC(=O)C[S+]([O-])c1ccc([C@@H](C)NC(=O)c2cc3c(Cl)c(Cl)c(C)cc3n2C)cc1` (stereo partly drawn) [Example 11-001, methyl 2-{4-[(1R)-1-[(4,5-dichloro-1,6-dimethyl-1H-indol-2-yl)formamido]ethyl]benzenesulfinyl}acetate], for which the pIC50 is 6.53. Consider `COC(=O)C[S@@+]([O-])c1ccc([C@@H](CO)NC(=O)c2cc3c(Cl)c(Cl)c(C)cc3n2C)cc1` [Example 11-002, methyl 2-[(R)-4-[(1S)-1-[(4,5-dichloro-1,6-dimethyl-1H-indol-2-yl)formamido]-2-hydroxyethyl]benzenesulfinyl]acetate], for which the pIC50 is 6.72.

On to `COC(=O)C[S@+]([O-])c1ccc([C@@H](CO)NC(=O)c2cc3c(Cl)c(Cl)c(C)cc3n2C)cc1` [Example 11-003, methyl 2-[(S)-4-[(1S)-1-[(4,5-dichloro-1,6-dimethyl-1H-indol-2-yl)formamido]-2-hydroxyethyl]benzenesulfinyl]acetate], for which the pIC50 was 7.05.

The same test, now with this note: 500 μM NAD/500 μM 3-PG; read-out: IC50 (PHGDH_500_NAD/3-PG).
With `Cc1cc2c(cc(C(=O)N[C@H](CO)c3ccc(S(=O)(=O)CC(=O)OCCO)cc3)n2C)c(Cl)c1Cl` [Example 09-036, 2-hydroxyethyl 2-{4-[(1S)-1-[(4,5-dichloro-1,6-dimethyl-1H-indol-2-yl)formamido]-2-hydroxyethyl]benzenesulfonyl}acetate], the pIC50 was 6.97. Consider `Cc1cc2c(cc(C(=O)N[C@H](CO)c3ccc(S(=O)(=O)CC(=O)OC4CCOCC4)cc3)n2C)c(F)c1F` [Example 09-037, oxan-4-yl 2-{4-[(1S)-1-[(4,5-difluoro-1,6-dimethyl-1H-indol-2-yl)formamido]-2-hydroxyethyl]benzenesulfonyl}acetate], for which the pIC50 is 6.24. `Cc1cc2c(cc(C(=O)N[C@H](CO)c3ccc(S(=O)(=O)CC(=O)OCCCO)cc3)n2C)c(F)c1F` [Example 09-038, 3-hydroxypropyl 2-{4-[(1S)-1-[(4,5-difluoro-1,6-dimethyl-1H-indol-2-yl)formamido]-2-hydroxyethyl]benzenesulfonyl}acetate]: the pIC50 was 6.59.

With `Cc1cc2c(cc(C(=O)N[C@H](CO)c3ccc(S(=O)(=O)CC(=O)OCC(C)(C)O)cc3)n2C)c(Cl)c1Cl` [Example 09-039, 2-hydroxy-2-methylpropyl 2-{4-[(1S)-1-[(4,5-dichloro-1,6-dimethyl-1H-indol-2-yl)formamido]-2-hydroxyethyl]benzenesulfonyl}acetate], the pIC50 was 6.77.

Take `Cc1cc2c(cc(C(=O)N[C@H](CO)c3ccc(S(=O)(=O)CC(=O)OCCCO)cc3)n2C)c(Cl)c1Cl` [Example 09-040, 3-hydroxypropyl 2-{4-[(1S)-1-[(4,5-dichloro-1,6-dimethyl-1H-indol-2-yl)formamido]-2-hydroxyethyl]benzenesulfonyl}acetate]: the pIC50 is 6.72. As to `Cc1cc2c(cc(C(=O)N[C@H](CO)c3ccc(S(=O)(=O)CC(=O)OCCO)cc3)n2C)c(F)c1F` [Example 09-041, 2-hydroxyethyl 2-{4-[(1S)-1-[(4,5-difluoro-1,6-dimethyl-1H-indol-2-yl)formamido]-2-hydroxyethyl]benzenesulfonyl}acetate], the pIC50 is 6.81. On to `Cc1cc2c(cc(C(=O)N[C@H](CO)c3ccc(S(=O)(=O)CC(=O)OCC(C)(C)CO)cc3)n2C)c(F)c1F` [Example 09-042, 3-hydroxy-2,2-dimethylpropyl 2-{4-[(1S)-1-[(4,5-difluoro-1,6-dimethyl-1H-indol-2-yl)formamido]-2-hydroxyethyl]benzenesulfonyl}acetate], for which the pIC50 is 6.29. `Cc1cc2c(cc(C(=O)N[C@H](CO)c3ccc(S(=O)(=O)CC(=O)OCC(C)(C)O)cc3)n2C)c(F)c1F` [Example 09-043, 2-hydroxy-2-methylpropyl 2-{4-[(1S)-1-[(4,5-difluoro-1,6-dimethyl-1H-indol-2-yl)formamido]-2-hydroxyethyl]benzenesulfonyl}acetate]: the pIC50 was 6.61.

Turning to `Cc1cc2c(cc(C(=O)N[C@H](CO)c3ccc(S(=O)(=O)CC(=O)OCC(C)(C)CO)cc3)n2C)c(Cl)c1Cl` [Example 09-044, 3-hydroxy-2,2-dimethylpropyl 2-{4-[(1S)-1-[(4,5-dichloro-1,6-dimethyl-1H-indol-2-yl)formamido]-2-hydroxyethyl]benzenesulfonyl}acetate], the pIC50 is 6.38. As for `COC(=O)C[S+]([O-])c1ccc([C@@H](C)NC(=O)c2cc3c(Cl)c(Cl)c(C)cc3n2C)cc1` (stereo partly drawn) [Example 11-001, methyl 2-{4-[(1R)-1-[(4,5-dichloro-1,6-dimethyl-1H-indol-2-yl)formamido]ethyl]benzenesulfinyl}acetate], the pIC50 is 6.36. Consider `COC(=O)C[S@@+]([O-])c1ccc([C@@H](CO)NC(=O)c2cc3c(Cl)c(Cl)c(C)cc3n2C)cc1` [Example 11-002, methyl 2-[(R)-4-[(1S)-1-[(4,5-dichloro-1,6-dimethyl-1H-indol-2-yl)formamido]-2-hydroxyethyl]benzenesulfinyl]acetate], for which the pIC50 is 6.54.

With `COC(=O)C[S@+]([O-])c1ccc([C@@H](CO)NC(=O)c2cc3c(Cl)c(Cl)c(C)cc3n2C)cc1` [Example 11-003, methyl 2-[(S)-4-[(1S)-1-[(4,5-dichloro-1,6-dimethyl-1H-indol-2-yl)formamido]-2-hydroxyethyl]benzenesulfinyl]acetate], the pIC50 is 6.86.

Values taken from patent publication US11304929B2, “Tosylacetate based compounds and derivatives thereof as PHGDH inhibitors” (priority 2017, dated 2022).
